Measurements from US20250215039A1, “NUCLEOSIDES FOR TREATING CANCER” (PRIMEFOUR THERAPEUTICS, INC., priority 2022, published 2025).
Where two headings read alike, the source gives them in different places.

System: cancer cell lines
Assay: Cancer cell proliferation activity (CellTiterGlo, 72 h)
Assay type: cell-based
Conditions: for IC50: 72 h, read-out: IC50
Description: Dose response relationships on cell proliferation was assessed for representative Compounds of the Disclosure on cancer cell lines. Briefly, compound treatment of cells started one day after seeding with a final DMSO concentration of 0.1%, and was performed by nanodrop-dispensing using a Tecan Dispenser. 0.1% DMSO (solvent) and Staurosporine (10 μM) served as high control (100% viability) and low control (0% viability), respectively.
Cells were cultured in the appropriate media. For the assays, cells were seeded in white cell culture-treated flat and clear bottom multiwell plates and incubated at 37° C. overnight before compound was added. After incubation for 72 h at 37° C. at 5% or 10% CO2 dependent on the medium, cell plates were equilibrated to room temperature for one hour, CellTiterGlo reagent (Promega) was added and luminescence was measured approximately an hour later using a luminometer.
Raw data were converted into percent cell viability relative to the high and low control, which were set to 100% and 0%, respectively.
The IC50 values are summarized in Tables 9A-1, Table 10A, and Table 10B.

IC50 (5637 cell line (bladder)): 1.6 nM | IC50 (CLS439 cell line (bladder)): 3.5 nM | IC50 (HS729 cell line (muscle)): 3.6 nM | IC50 (HSS78T cell line): 3.8 nM | IC50 (JAR cell line (placenta)): 2 nM | IC50 (SKMELS cell line): 3.2 nM | IC50 (Homo sapiens, 22Rv1, 72 h, 22RV1 cell line (prostate)): 13 nM | IC50 (Homo sapiens, 786-0, 72 h, 786O cell line (kidney)): 4.1 nM | IC50 (Homo sapiens, A204, 72 h, A204 cell line (muscle)): 0.9 nM | IC50 (Homo sapiens, A549, 72 h, A549 cell line): 3.1 nM | IC50 (Homo sapiens, A673, 72 h, A673 cell line (bone)): 3.5 nM | IC50 (Homo sapiens, A2780, 72 h, A2780 cell line (ovary)): 2.4 nM | IC50 (Homo sapiens, A-375, 72 h, A375 cell line (skin)): 2.3 nM | IC50 (Homo sapiens, A-431, 72 h, A431 cell line (skin)): 2.3 nM | IC50 (Homo sapiens, ACHN, ACHN cell line (kidney)): 1.5 nM | IC50 (Homo sapiens, ASPC1, 72 h, ASPC1 cell line (pancreas)): 5.2 nM | IC50 (Homo sapiens, BT-20, 72 h, BT20 cell line (breast)): 7 nM | IC50 (Homo sapiens, BXPC-3, 72 h, BXPC3 cell line (pancreas)): 2.4 nM | IC50 (Homo sapiens, C-33-A, C33A cell line (cervical)): 4.4 nM | IC50 (Homo sapiens, CAKI-1, 72 h, CAKI1 cell line (kidney)): 2.7 nM | IC50 (Homo sapiens, COLO 205, 72 h, COLO205 cell line (colon)): 20.2 nM | IC50 (Homo sapiens, COLO-678, 72 h, COLO678 cell line (colon)): 5.3 nM | IC50 (Homo sapiens, Ca-Ski, CASKI cell line (cervical)): 5.9 nM | IC50 (Homo sapiens, Caco-2, 72 h, CACO2 cell line (colon)): 7 nM | IC50 (Homo sapiens, Calu-6, 72 h, CALU6 cell line (lung)): 6.1 nM | IC50 (Homo sapiens, DLD-1, 72 h, DLD1 cell line (colon)): 5.3 nM | IC50 (Homo sapiens, DU-145, 72 h, DU145 cell line (prostate)): 2.1 nM | IC50 (Homo sapiens, EFO-21, 72 h, EFO21 cell line (ovary)): 1.9 nM | IC50 (Homo sapiens, EJ-28, 72 h, EJ28 cell line (bladder)): 2.1 nM | IC50 (Homo sapiens, Granta-519, 72 h, GRANTA-519 cell line (hematological)): 0.5 nM | IC50 (Homo sapiens, HCT-15, 72 h, HCT15 cell line (colon)): 4.7 nM | IC50 (Homo sapiens, HCT-116, 72 h, HCT116 cell line (colon)): 2 nM | IC50 (Homo sapiens, HEK293, 72 h, HEK293 cell line (kidney)): 20.9 nM | IC50 (Homo sapiens, HL-60, 72 h, HL-60 cell line (hematological)): 2.2 nM | IC50 (Homo sapiens, HT-29, 72 h, HT29 cell line (colon)): 3.5 nM | IC50 (Homo sapiens, HT-1080, 72 h, HT1080 cell line (connective tissue)): 1.7 nM | IC50 (Homo sapiens, HeLa, HELA cell line (cervical)): 6 nM | IC50 (Homo sapiens, HepG2, 72 h, HEPG2 cell line (liver)): 2 nM | IC50 (Homo sapiens, IGROV-1, 72 h, IGROV1 cell line (ovary)): 4.8 nM | IC50 (Homo sapiens, IMR-90, 72 h, IMR.90 cell line): 2.6 nM | IC50 (Homo sapiens, J82, 72 h, J82 cell line (bladder)): 5.1 nM | IC50 (Homo sapiens, JEG-3, 72 h, JEG3 cell line (placenta)): 5.3 nM | IC50 (Homo sapiens, JIMT-1, 72 h, JIMT1 cell line (breast)): 0.9 nM | IC50 (Homo sapiens, K562, 72 h, K-562 cell line (hematological)): 14.2 nM | IC50 (Homo sapiens, Kasumi 1, 72 h, KASUMI-1 cell line (hematological)): 3.5 nM | IC50 (Homo sapiens, L-363, 72 h, L-363 cell line (hematological)): 3.4 nM | IC50 (Homo sapiens, LoVo, LOVO cell line (colon)): 2.3 nM | IC50 (Homo sapiens, MCF7, 72 h, MCF7 cell line (breast)): 4.1 nM | IC50 (Homo sapiens, MDA-MB-231, 72 h, MDAMB231 cell line (breast)): 0.9 nM | IC50 (Homo sapiens, MDA-MB-435, 72 h, MDAMB435 cell line (skin)): 2.8 nM | IC50 (Homo sapiens, MDA-MB-436, 72 h, MDAMB436 cell line (breast)): 1.8 nM | IC50 (Homo sapiens, MDA-MB-468, 72 h, MDAMB468 cell line (breast)): 1.9 nM | IC50 (Homo sapiens, MG-63, 72 h, MG63 cell line (bone)): 4.8 nM | IC50 (Homo sapiens, MHH-ES-1, 72 h, MHHES1 cell line (bone)): 2 nM | IC50 (Homo sapiens, MIA PaCa-2, 72 h, MIAPACA2 cell line (pancreas)): 6.8 nM | IC50 (Homo sapiens, MINO, MINO cell line (hematological)): 0.3 nM | IC50 (Homo sapiens, MV4-11, 72 h, MV4-11 cell line (hematological)): 1.1 nM | IC50 (Homo sapiens, NCI-H23, 72 h, NCI-H23 cell line (lung)): 1.1 nM | IC50 (Homo sapiens, NCI-H82, 72 h, NCIH82 cell line (lung)): 7.6 nM | IC50 (Homo sapiens, NCI-H292, 72 h, NCIH292 cell line (lung)): 4.4 nM | IC50 (Homo sapiens, NCI-H460, 72 h, NCIH460 cell line (lung)): 5 nM | IC50 (Homo sapiens, OVCAR-3, 72 h, OVCAR3 cell line (ovary)): 3.1 nM | IC50 (Homo sapiens, OVCAR-4, 72 h, OVCAR4 cell line (ovary)): 4.9 nM | IC50 (Homo sapiens, PANC-1, 72 h, PANC1 cell line (pancreas)): 9.7 nM | IC50 (Homo sapiens, PC-3, 72 h, PC3 cell line (prostate)): 2.6 nM | IC50 (Homo sapiens, PLC-PRF-5, 72 h, PLCPRF5 cell line (liver)): 9.2 nM | IC50 (Homo sapiens, Panc1005, 72 h, PANC1005 cell line (pancreas)): 7.9 nM | IC50 (Homo sapiens, RD, RD cell line (muscle)): 2.3 nM | IC50 (Homo sapiens, Ramos, RAMOS cell line (hematological)): 0.6 nM | IC50 (Homo sapiens, SAOS-2, 72 h, SAOS2 cell line (bone)): 0.5 nM | IC50 (Homo sapiens, SF-268, 72 h, SF268 cell line (brain)): 4.1 nM | IC50 (Homo sapiens, SF-295, 72 h, SF295 cell line (brain)): 3.3 nM | IC50 (Homo sapiens, SK-BR-3, 72 h, SKBR3 cell line (breast)): 0.6 nM | IC50 (Homo sapiens, SK-HEP1, 72 h, SKHEP1 cell line (liver)): 4.7 nM | IC50 (Homo sapiens, SK-LMS-1, 72 h, SKLMS1 cell line (uterus)): 4.1 nM | IC50 (Homo sapiens, SK-MEL-28, 72 h, SKMEL28 cell line (skin)): 4.3 nM | IC50 (Homo sapiens, SK-N-AS, SKNAS cell line (brain)): 3.6 nM | IC50 (Homo sapiens, SK-N-SH, SKNSH cell line (brain)): 3.3 nM | IC50 (Homo sapiens, SK-OV-3, 72 h, SKOV3 cell line (ovary)): 23.7 nM | IC50 (Homo sapiens, SNB-75, 72 h, SNB75 cell line (brain)): 5.3 nM | IC50 (Homo sapiens, SU-DHL10, 72 h, SU-DHL-10 cell line (hematological)): 4.1 nM | IC50 (Homo sapiens, SU-DHL-6, 72 h, SU-DHL-6 cell line (hematological)): 6.8 nM | IC50 (Homo sapiens, SW-620, 72 h, SW620 cell line (colon)): 3 nM | IC50 (Homo sapiens, T-24, 72 h, T24 cell line (bladder)): 1.4 nM | IC50 (Homo sapiens, TE-671, 72 h, TE671 cell line (muscle)): 8.3 nM | IC50 (Homo sapiens, THP-1, 72 h, THP-1 cell line (hematological)): 1.1 nM | IC50 (Homo sapiens, U2OS, U2OS cell line (bone)): 5.7 nM | IC50 (Homo sapiens, U-87 MG, U87MG cell line (brain)): 1.5 nM | IC50 (Homo sapiens, UMUC3, 72 h, UMUC3 cell line (bladder)): 4.3 nM | IC50 (Homo sapiens, UO-31, 72 h, UO31 cell line (kidney)): 3.7 nM | IC50 (Homo sapiens, WSU-NHL, WSU-NHL cell line (hematological)): 4.5 nM | IC50 (MT-3, 72 h, MT3 cell line (breast)): 0.9 nM | IC50 (NCI-H358M, NCIH358M cell line (lung)): 3.5 nM | IC50 (PBMC, PBMC (hematological)): 12300 nM | IC50 (RD-ES, RDES cell line (bone)): 3.7 nM
SMILES: Nc1ccn([C@@H]2O[C@H](CO)[C@@H](O)C2(F)F)c(=O)n1 [gemcitabine, reference compound]
cytotoxicity against a panel of cell lines (waterfall plot) (panel of cancer and non-cancer cell lines, figure legends FIG. 1-3): indiscriminately cytotoxic
